Results published in US10696707B2, “Polyene macrolide derivative” (Shionogi & Co., Ltd., priority 2014, dated 2020).

Tested on: red blood cells (5% RBC suspension)
Test: Test Example 2-1: in vitro hemolytic activity test (upper limit 50, 80, 100 or 200 μmol/L)
Type: cell-based
Details: Erythrocyte, 1 h; hemolysis method 50 (upper concentration 50 μmol/L); 5% RBC suspension, 37° C., one hour; read-out: hemolysis IC50
Protocol: Nephrotoxic potentials of the compounds of the present invention except the compounds whose X is —N(R^F)—CO—X^1 and X^1 is the group represented by formula (III) and T is —N(R^a5)— were investigated by in vitro hemolytic activity test under the condition, in that, the upper limit was 50 μmol/L, 80 μmol/L, 100 μmol/L, or 200 μmol/L as the required concentration to 50% of hemolysis (IC50).
Defibrinated sterile blood was centrifuged at 700×g for 3 minutes and, and the supernatant was removed for 100% of red blood cells. After the cleaning with physiological saline, the washed blood cells was suspended in the medium (Earle's balanced salt sodium, bicarbonate, 0.1 g/L L-glutamine without phenol red), and was diluted by 5% (5% RBC suspension).
The washed blood was diluted by 5% in water for injection (solution of complete hemolysis), and was used as the indication of optical density for complete hemolysis.
The compounds of the present invention solution in DMSO (several and doubling dilutions starting from 2.5 mmol/L, 4 mmol/L, 5 mmol/L, or 10 mmol/L), DMSO as the negative control, and Amphotericin B as the positive control were used, and each 5 μL of these was added in to a well of V-form 96 well type microplate.
Finally, the maximum concentration of the compounds of the present invention solution in DMSO was 50 μmol/L, 80 μmol/L, 100 μmol/L, or 200 μmol/L by adding 245 μL of the medium or 5% RBC suspension into the well.
Two hundred fifty μL of the solution of complete hemolysis was added into another well and the microplate was incubated at 37° C. in 5% of CO2 concentration for an hour.
After the incubation, each 100 μL of supernatants in wells was collected by centrifugation of the microplate at 300×g for 5 minutes and was located on a well of flat-form 96 well type microplate. An absorbance of each supernatant was measured at wavelength of 540 nm.
Percent hemolysis was calculated by using the followed equation. The required concentration to 50% of hemolysis (IC50) was calculated based on the percent hemolysis. […] Hemolysis (%)=(CR−VM)×100÷(VL−VR) Where:
CR: Absorbance of 5% RBC suspension incubated with the compounds of the present invention solution in DMSO
VM: Absorbance of medium incubated with the compounds of the present invention solution in DMSO
VL: Absorbance of solution of complete hemolysis
VR: Absorbance of 5% RBC suspension incubated with DMSO
The “hemolysis method” in the table means any tests the upper concentration of above IC50 are 50 μmol/L, 80 μmol/L, 100 μmol/L or 200 μmol/L. The “>50”, “>80”, “>100” or “>200” in the table means above IC50 value exceeded the each upper concentration.

Compound | IC50
C[C@@H]1[C@H](O)[C@@H](C)/C=C/C=C/C=C/C=C/C=C/C=C/C=C/[C@H](O[C@@H]2O[C@H](C)[C@@H](O)[C@H](N)[C@@H]2O)C[C@@H]2O[C@](O)(C[C@@H](O)C[C@@H](O)[C@H](O)CC[C@@H](O)C[C@@H](O)CC(=O)O[C@H]1C)C[C@H](O)[C@H]2NC(=O)NC(CO[C@H]1O[C@H](CO)[C@@H](O)[C@H](O)[C@@H]1O)CO[C@H]1O[C@H](CO)[C@@H](O)[C@H](O)[C@@H]1O [I-254] | > 50 µM
C[C@@H]1[C@H](O)[C@@H](C)/C=C/C=C/C=C/C=C/C=C/C=C/C=C/[C@H](O[C@@H]2O[C@H](C)[C@@H](O)[C@H](N)[C@@H]2O)C[C@@H]2O[C@](O)(C[C@@H](O)C[C@@H](O)[C@H](O)CC[C@@H](O)C[C@@H](O)CC(=O)O[C@H]1C)C[C@H](O)[C@H]2NC(=O)NC1(C(=O)O)COC1 [I-252] | > 50 µM
C[C@@H]1[C@H](O)[C@@H](C)/C=C/C=C/C=C/C=C/C=C/C=C/C=C/[C@H](O[C@@H]2O[C@H](C)[C@@H](O)[C@H](N)[C@@H]2O)C[C@@H]2O[C@](O)(C[C@@H](O)C[C@@H](O)[C@H](O)CC[C@@H](O)C[C@@H](O)CC(=O)O[C@H]1C)C[C@H](O)[C@H]2NC(=O)N1CC(O[C@H]2OC(CO)[C@@H](O)[C@H](O)C2O)C1 (stereo partly shown) [I-303] | > 50 µM

Same assay, conditions: hemolysis method 50 (upper concentration 50 μmol/L); 5% RBC suspension, 37° C., one hour; read-out: hemolysis IC50

Compound | IC50
CCCN(O)C(=O)N[C@H]1[C@@H]2C[C@@H](O[C@@H]3O[C@H](C)[C@@H](O)[C@H](N)[C@@H]3O)/C=C/C=C/C=C/C=C/C=C/C=C/C=C/[C@H](C)[C@@H](O)[C@@H](C)[C@H](C)OC(=O)C[C@H](O)C[C@H](O)CC[C@@H](O)[C@H](O)C[C@H](O)C[C@](O)(C[C@@H]1O)O2 [I-280] | > 50 µM
C[C@@H]1[C@H](O)[C@@H](C)/C=C/C=C/C=C/C=C/C=C/C=C/C=C/[C@H](O[C@@H]2O[C@H](C)[C@@H](O)[C@H](N)[C@@H]2O)C[C@@H]2O[C@](O)(C[C@@H](O)C[C@@H](O)[C@H](O)CC[C@@H](O)C[C@@H](O)CC(=O)O[C@H]1C)C[C@H](O)[C@H]2NC(=O)NCC[C@H](O)CO [I-146] | > 50 µM
C[C@@H]1[C@H](O)[C@@H](C)/C=C/C=C/C=C/C=C/C=C/C=C/C=C/[C@H](O[C@@H]2O[C@H](C)[C@@H](O)[C@H](N)[C@@H]2O)C[C@@H]2O[C@](O)(C[C@@H](O)C[C@@H](O)[C@H](O)CC[C@@H](O)C[C@@H](O)CC(=O)O[C@H]1C)C[C@H](O)[C@H]2NC(=O)NCCCC(=O)O [I-38] | > 50 µM
CCN(O)C(=O)N[C@H]1[C@@H]2C[C@@H](O[C@@H]3O[C@H](C)[C@@H](O)[C@H](N)[C@@H]3O)/C=C/C=C/C=C/C=C/C=C/C=C/C=C/[C@H](C)[C@@H](O)[C@@H](C)[C@H](C)OC(=O)C[C@H](O)C[C@H](O)CC[C@@H](O)[C@H](O)C[C@H](O)C[C@](O)(C[C@@H]1O)O2 [I-279] | > 50 µM
C[C@@H]1[C@H](O)[C@@H](C)/C=C/C=C/C=C/C=C/C=C/C=C/C=C/[C@H](O[C@@H]2O[C@H](C)[C@@H](O)[C@H](N)[C@@H]2O)C[C@@H]2O[C@](O)(C[C@@H](O)C[C@@H](O)[C@H](O)CC[C@@H](O)C[C@@H](O)CC(=O)O[C@H]1C)C[C@H](O)[C@H]2NC(=O)NC1CCS(=O)(=O)C1 (stereo partly shown) [I-231] | > 50 µM
C[C@@H]1[C@H](O)[C@@H](C)/C=C/C=C/C=C/C=C/C=C/C=C/C=C/[C@H](O[C@@H]2O[C@H](C)[C@@H](O)[C@H](N)[C@@H]2O)C[C@@H]2O[C@](O)(C[C@@H](O)C[C@@H](O)[C@H](O)CC[C@@H](O)C[C@@H](O)CC(=O)O[C@H]1C)C[C@H](O)[C@H]2NC(=O)N1CCC1C(=O)O (stereo partly shown) [I-283] | > 50 µM

Same assay, conditions: hemolysis method 80 (upper concentration 80 μmol/L); 5% RBC suspension, 37° C., one hour; read-out: hemolysis IC50

Compound | IC50
C[C@@H]1[C@H](O)[C@@H](C)/C=C/C=C/C=C/C=C/C=C/C=C/C=C/[C@H](O[C@@H]2O[C@H](C)[C@@H](O)[C@H](N)[C@@H]2O)C[C@@H]2O[C@](O)(C[C@@H](O)C[C@@H](O)[C@H](O)CC[C@@H](O)C[C@@H](O)CC(=O)O[C@H]1C)C[C@H](O)[C@H]2NC(=O)N1CCCCC1c1ccccc1 (stereo partly shown) [I-22] | > 80 µM
C[C@@H]1[C@H](O)[C@@H](C)/C=C/C=C/C=C/C=C/C=C/C=C/C=C/[C@H](O[C@@H]2O[C@H](C)[C@@H](O)[C@H](N)[C@@H]2O)C[C@@H]2O[C@](O)(C[C@@H](O)C[C@@H](O)[C@H](O)CC[C@@H](O)C[C@@H](O)CC(=O)O[C@H]1C)C[C@H](O)[C@H]2NC(=O)N1CCCN(CCCN2CCOCC2)CC1 [I-23] | 79 µM
C[C@@H]1[C@H](O)[C@@H](C)/C=C/C=C/C=C/C=C/C=C/C=C/C=C/[C@H](O[C@@H]2O[C@H](C)[C@@H](O)[C@H](N)[C@@H]2O)C[C@@H]2O[C@](O)(C[C@@H](O)C[C@@H](O)[C@H](O)CC[C@@H](O)C[C@@H](O)CC(=O)O[C@H]1C)C[C@H](O)[C@H]2NC(=O)N1CCC(N(C)C)C1 (single isomer, unassigned) [I-50] | > 80 µM
C[C@@H]1[C@H](O)[C@@H](C)/C=C/C=C/C=C/C=C/C=C/C=C/C=C/[C@H](O[C@@H]2O[C@H](C)[C@@H](O)[C@H](N)[C@@H]2O)C[C@@H]2O[C@](O)(C[C@@H](O)C[C@@H](O)[C@H](O)CC[C@@H](O)C[C@@H](O)CC(=O)O[C@H]1C)C[C@H](O)[C@H]2NC(=O)NCC(F)(F)F [I-21] | > 80 µM
C[C@@H]1[C@H](O)[C@@H](C)/C=C/C=C/C=C/C=C/C=C/C=C/C=C/[C@H](O[C@@H]2O[C@H](C)[C@@H](O)[C@H](N)[C@@H]2O)C[C@@H]2O[C@](O)(C[C@@H](O)C[C@@H](O)[C@H](O)CC[C@@H](O)C[C@@H](O)CC(=O)O[C@H]1C)C[C@H](O)[C@H]2NC(=O)N(CCO)CCO [I-39] | > 80 µM

Same assay, conditions: hemolysis method 100 (upper concentration 100 μmol/L); 5% RBC suspension, 37° C., one hour; read-out: hemolysis IC50

Compound | IC50
C[C@@H]1[C@H](O)[C@@H](C)/C=C/C=C/C=C/C=C/C=C/C=C/C=C/[C@H](O[C@@H]2O[C@H](C)[C@@H](O)[C@H](N)[C@@H]2O)C[C@@H]2O[C@](O)(C[C@@H](O)C[C@@H](O)[C@H](O)CC[C@@H](O)C[C@@H](O)CC(=O)O[C@H]1C)C[C@H](O)[C@H]2NC(=O)NCCCN(C)C [I-7] | 81 µM
C[C@@H]1[C@H](O)[C@@H](C)/C=C/C=C/C=C/C=C/C=C/C=C/C=C/[C@H](O[C@@H]2O[C@H](C)[C@@H](O)[C@H](NC(=O)CN(C)C)[C@@H]2O)C[C@@H]2O[C@](O)(C[C@@H](O)C[C@@H](O)[C@H](O)CC[C@@H](O)C[C@@H](O)CC(=O)O[C@H]1C)C[C@H](O)[C@H]2NC(=O)NCCN(C)C [I-327] | > 50 µM
C[C@@H]1[C@H](O)[C@@H](C)/C=C/C=C/C=C/C=C/C=C/C=C/C=C/[C@H](O[C@@H]2O[C@H](C)[C@@H](O)[C@H](N)[C@@H]2O)C[C@@H]2O[C@](O)(C[C@@H](O)C[C@@H](O)[C@H](O)CC[C@@H](O)C[C@@H](O)CC(=O)O[C@H]1C)C[C@H](O)[C@H]2NC(=O)NCCCN1CCOCC1 [I-8] | 96 µM
C[C@@H]1[C@H](O)[C@@H](C)/C=C/C=C/C=C/C=C/C=C/C=C/C=C/[C@H](O[C@@H]2O[C@H](C)[C@@H](O)[C@H](N)[C@@H]2O)C[C@@H]2O[C@](O)(C[C@@H](O)C[C@@H](O)[C@H](O)CC[C@@H](O)C[C@@H](O)CC(=O)O[C@H]1C)C[C@H](O)[C@H]2NC(=O)NCCn1cncn1 [I-9] | > 100 µM
C[C@@H]1[C@H](O)[C@@H](C)/C=C/C=C/C=C/C=C/C=C/C=C/C=C/[C@H](O[C@@H]2O[C@H](C)[C@@H](O)[C@H](N)[C@@H]2O)C[C@@H]2O[C@](O)(C[C@@H](O)C[C@@H](O)[C@H](O)CC[C@@H](O)C[C@@H](O)CC(=O)O[C@H]1C)C[C@H](O)[C@H]2NC(=O)N(C)C [I-10] | > 100 µM
